This is an account of results in patent US6255303A, “Phthalazinone PDE III/IV inhibitors” (Byk Gulden Lomberg Chemische Fabrik GmbH, priority 1998, dated 2001).

Assay [1] has as its target PDE4. The experiment in a line: Inhibition of PDE isoenzymes: PDE4 (cAMP-specific), cytosol of human polymorphonuclear leukocytes, cAMP as substrate. The class given is biochemical. Conditions: cytosol of human PMNL; 0.5 μM cAMP; motapizone (1 μM) to suppress PDE3; pH 7.4, 37° C., 15 min.
In assay [2] the target is T1, PDE3 (Homo sapiens, UniProt Q14432).
T1 construct: investigated in homogenates of human blood platelets; from tissue; host or cells: human blood platelets (homogenate)
T1 sequence (Q14432 whole entry): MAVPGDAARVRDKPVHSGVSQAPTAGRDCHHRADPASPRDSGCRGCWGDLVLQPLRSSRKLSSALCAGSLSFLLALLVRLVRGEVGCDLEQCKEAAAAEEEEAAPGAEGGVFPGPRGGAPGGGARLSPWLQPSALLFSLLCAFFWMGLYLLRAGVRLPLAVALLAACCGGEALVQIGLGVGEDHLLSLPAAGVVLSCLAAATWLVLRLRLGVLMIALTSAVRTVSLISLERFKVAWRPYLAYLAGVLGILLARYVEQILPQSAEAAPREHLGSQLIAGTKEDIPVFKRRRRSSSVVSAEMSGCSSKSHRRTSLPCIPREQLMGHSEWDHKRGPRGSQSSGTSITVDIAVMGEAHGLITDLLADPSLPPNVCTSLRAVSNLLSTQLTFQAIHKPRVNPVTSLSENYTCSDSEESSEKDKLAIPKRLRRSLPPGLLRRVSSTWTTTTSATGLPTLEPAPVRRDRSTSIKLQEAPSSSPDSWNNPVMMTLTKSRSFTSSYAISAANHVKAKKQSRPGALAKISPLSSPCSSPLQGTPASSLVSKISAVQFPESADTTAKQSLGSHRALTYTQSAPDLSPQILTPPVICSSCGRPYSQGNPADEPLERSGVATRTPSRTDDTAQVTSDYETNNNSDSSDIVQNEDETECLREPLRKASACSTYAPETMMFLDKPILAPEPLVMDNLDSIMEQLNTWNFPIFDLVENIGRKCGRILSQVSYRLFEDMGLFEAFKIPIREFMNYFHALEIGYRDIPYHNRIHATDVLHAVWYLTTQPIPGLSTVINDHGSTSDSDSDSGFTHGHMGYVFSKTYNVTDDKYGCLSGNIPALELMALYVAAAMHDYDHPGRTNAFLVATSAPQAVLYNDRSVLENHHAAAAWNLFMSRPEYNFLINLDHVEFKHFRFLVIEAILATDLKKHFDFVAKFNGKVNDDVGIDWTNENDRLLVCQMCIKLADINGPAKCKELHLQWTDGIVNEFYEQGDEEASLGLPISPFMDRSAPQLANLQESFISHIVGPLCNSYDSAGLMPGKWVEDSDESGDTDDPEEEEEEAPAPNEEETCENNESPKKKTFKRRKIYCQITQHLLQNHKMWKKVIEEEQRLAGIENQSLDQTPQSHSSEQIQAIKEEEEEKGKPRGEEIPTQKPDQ
Briefly: Inhibition of PDE isoenzymes: PDE3 (cGMP-inhibited), homogenates of human blood platelets. To be noted: 0.5 μM cAMP or cGMP, pH 7.4, 37° C., 15 min, read-out: -log IC50 PDE3 (converted). The class given is biochemical.

The structures appear in SMILES notation.

As for `COc1ccc(C2=NN(c3ccc(C4=NNC(=O)CC4C)cc3)C(=O)[C@H]3CC=CC[C@@H]23)cc1OC` (relative stereo) [Compound 2, (cis)-4-(3,4-Dimethoxyphenyl)-2-{4-(4-methyl-6-oxo-1,4,5,6-tetrahydropyridazin-3-yl)phenyl}-4a,5,8,8a-tetrahydro-2H-phthalazin-1-one], the “-log IC50 PDE4” value in assay [1] stood at 8.36 mol/l. In addition, the IC50 in assay [2] is 204 nM.

With `COc1ccc(C2=NN(c3ccc(C(=O)Nc4ccc(C5=NNC(=O)CC5C)cc4)cc3)C(=O)[C@H]3CC=CC[C@@H]23)cc1OC` (relative stereo) [Compound 4, (cis)-N-{4-(4-Methyl-6-oxo-1,4,5,6-tetrahydro-pyridazin-3-yl)phenyl}-4-{4-(3,4-dimethoxyphenyl)-1-oxo-4a,5,8,8a-tetrahydro-1H-phthalazin-2-yl}benzamide], the “-log IC50 PDE4” value in assay [1] is 8.48 mol/l. Moreover, the half-maximal inhibitory concentration (IC50) in assay [2] is 891 nM.

As to `COc1ccc(C2=NN(CC(=O)Nc3ccc(-c4ccc(=O)[nH]n4)cc3)C(=O)[C@@H]3CC=CC[C@H]23)cc1OC` (relative stereo) [Compound 5], in assay [1], the “-log IC50 PDE4” value is 8.10 mol/l. In assay [2], the IC50 is 1260 nM.

As for `COc1ccc(C2=NN(CCCCC(=O)Nc3ccc(-c4ccc(=O)[nH]n4)cc3)C(=O)[C@@H]3CC=CC[C@H]23)cc1OC` (relative stereo) [Compound 6], in assay [1], the “-log IC50 PDE4” value is recorded as 8.17 mol/l. The IC50 in assay [2] was 832 nM.

As for `COc1ccc(C2=NN(CC(=O)Nc3ccc(C4=NNC(=O)CC4C)cc3)C(=O)[C@H]3CC=CC[C@@H]23)cc1OC` (relative stereo) [Compound 7, (cis)-N-{4-(4-Methyl-6-oxo-1,4,5,6-tetrahydro-pyridazin-3-yl)phenyl}-2-{4-(3,4-dimethoxy-phenyl)-1-oxo-4a,5,8,8a-tetrahydro-1H-phthalazin-2-yl}acetamide], in assay [1], the “-log IC50 PDE4” value is 8.40 mol/l. For the same molecule, the 50% inhibitory concentration (IC50) in assay [2] was 182 nM.

With `COc1ccc(C2=NN(C(C)CCC(=O)Nc3ccc(C4=NNC(=O)CC4C)cc3)C(=O)[C@H]3CC=CC[C@@H]23)cc1OC` (relative stereo) [Compound 8, (cis)-N-{4-(4-Methyl-6-oxo-1,4,5,6-tetrahydro-pyridazin-3-yl)phenyl}-4-{4-(3,4-dimethoxyphenyl)-1-oxo-4a,5,8,8a-tetrahydro-1H-phthalazin-2-yl}valeramide], in assay [1], the “-log IC50 PDE4” value came to 8.17 mol/l. Moreover, the IC50 in assay [2] is 100 nM.

For the molecule `COc1ccc(C2=NN(c3ccc(C(=O)Nc4ccc(-c5ccc(=O)[nH]n5)cc4)cc3)C(=O)[C@H]3CC=CC[C@@H]23)cc1OC` (relative stereo) [Compound 9, (cis)-N-{4-(6-Oxo-1,6-dihydro-pyridazin-3-yl)phenyl}-4-(4-{3,4-dimethoxyphenyl}-1-oxo-4a,5,8,8a-tetrahydro-1H-phthalazin-2-yl)benzamide], the “-log IC50 PDE4” value in assay [1] was found to be 9.08 mol/l. In addition, the IC50 in assay [2] was 4900 nM.

With `COc1ccc(C2=NN(c3ccc(C4=NNC(=O)CC4C)cc3)C(=O)[C@H]3CC=CC[C@@H]23)cc1Cl` (relative stereo) [Compound 12, (cis)-4-(3-chloro-4-methoxyphenyl)-2-{4-(4-methyl-6-oxo-1,4,5,6-tetrahydropyridazin-3-yl)phenyl}-4a,5,8,8a-tetrahydro-2H-phthalazin-1-one], the “-log IC50 PDE4” value in assay [1] turned out to be 7.00 mol/l. Further, the IC50 in assay [2] is 81.3 nM.

On to `COc1ccc(C2=NN(CCCCOc3ccc(C4=NNC(=O)CC4C)cc3)C(=O)[C@H]3CC=CC[C@@H]23)cc1Cl` (relative stereo) [Compound 13, (cis)-6-(4-[4-{4-(3-Chloro-4-methoxyphenyl)-1-oxo-4a,5,8,8a-tetrahydro-2H-phthalazin-2-yl}-1-butyloxy)phenyl]-4,5-dihydro-5-methyl-2H-pyridazin-3-one], for which, in assay [1], the “-log IC50 PDE4” value was determined as 7.77 mol/l. Further, in assay [2], the half-inhibitory concentration (IC50) was 35.5 nM.

Take `CCOc1ccc(C2=NN(c3ccc(C4=NNC(=O)CC4C)cc3)C(=O)[C@H]3CC=CC[C@@H]23)cc1OCC` (relative stereo) [Compound 14, (cis)-4-(3,4-diethoxyphenyl)-2-{4-(4-methyl-6-oxo-1,4,5,6-tetrahydropyridazin-3-yl)phenyl}-4a,5,8,8a-tetrahydro-2H-phthalazin-1-one]: the “-log IC50 PDE4” value in assay [1] stood at 8.05 mol/l. Further, the IC50 in assay [2] was 275 nM.

Regarding `CCOc1ccc(C2=NN(CCCCOc3ccc(C4=NNC(=O)CC4C)cc3)C(=O)[C@H]3CC=CC[C@@H]23)cc1OCC` (relative stereo) [Compound 15, (cis)-6-(4-[4-{4-(3,4-diethoxyphenyl)-1-oxo-4a,5,8,8a-tetrahydro-2H-phthalazin-2-yl}-1-butyloxy)phenyl]-4,5-dihydro-5-methyl-2H-pyridazin-3-one], the “-log IC50 PDE4” value in assay [1] is listed as 8.60 mol/l. The concentration for half-maximal inhibition (IC50) in assay [2] is 209 nM.

Turning to `COc1ccc(C2=NN(c3ccc(C4=NNC(=O)CC4C)cc3)C(=O)[C@@H]3CC=CC[C@H]23)cc1OC` (stereo partly drawn) [Compound 16, (4aS,8aR)-4-[4-{4-(3,4-dimethoxyphenyl)-1-oxo-4a,5,8,8a-tetrahydro-2H-phthalazin-2-yl}phenyl]-5,6-dihydro-5-methylpyridazin-1-one], the “-log IC50 PDE4” value in assay [1] is on record as 8.64 mol/l. The IC50 in assay [2] is 437 nM.

For orientation: IC50 means the midpoint of a concentration-inhibition curve.
